According to patent publication US9566342B2, “Compounds for treatment of heart failure” (SOLVOTRIN INNOVATIONS LIMITED, priority 2010, dated 2017):
Several values for one entry are separate records, joined by “and”; a condition that tells them apart may be missing. Identical values can stand only once. Like-named read-outs stand apart in the source and are kept apart here.

Experiments:
[1] = biological target: T1, MMP-2 (Homo sapiens, UniProt P08253); experiment: Model of direct enzyme inhibition, MMP-2 (IC50); assay type: biochemical
T1 sequence (P08253 110-660): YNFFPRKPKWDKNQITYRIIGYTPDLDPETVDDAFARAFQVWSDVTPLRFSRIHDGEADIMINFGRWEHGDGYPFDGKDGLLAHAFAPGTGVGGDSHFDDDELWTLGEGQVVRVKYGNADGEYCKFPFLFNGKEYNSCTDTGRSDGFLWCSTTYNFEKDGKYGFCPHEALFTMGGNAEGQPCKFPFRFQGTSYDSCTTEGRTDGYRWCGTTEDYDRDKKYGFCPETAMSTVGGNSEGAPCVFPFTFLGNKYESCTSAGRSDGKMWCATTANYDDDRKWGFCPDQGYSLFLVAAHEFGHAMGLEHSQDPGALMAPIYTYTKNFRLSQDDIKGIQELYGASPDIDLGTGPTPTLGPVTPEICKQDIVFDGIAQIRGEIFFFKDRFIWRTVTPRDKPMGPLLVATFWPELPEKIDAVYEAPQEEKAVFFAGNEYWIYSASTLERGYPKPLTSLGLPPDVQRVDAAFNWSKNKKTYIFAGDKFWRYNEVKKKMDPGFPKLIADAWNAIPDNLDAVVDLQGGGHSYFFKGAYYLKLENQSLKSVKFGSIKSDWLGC

[2] = test system: Human Peripheral Blood mononuclear cells (PBMC) stimulated with TNF-α; experiment: MMPs, TIMP-1 and inflammatory markers in supernatants of PBMC stimulated with TNF-α; assay type: cell-based; conditions: for Interleukin-1β protein level in PBMC supernatant / Interleukin-4 protein level in PBMC supernatant / Interleukin-5 protein level in PBMC supernatant / Interleukin-8 protein level in PBMC supernatant / Interleukin-10 protein level in PBMC supernatant / Interleukin-13 protein level in PBMC supernatant / MMP-1 protein level in PBMC supernatant / MMP-2 protein level in PBMC supernatant / MMP-3 protein level in PBMC supernatant / MMP-10 protein level in PBMC supernatant: 24 hours, TNFα, mean ± SEM
[3] = test system: MMP-2 mRNA; experiment: TNFα treated human cardiac fibroblasts, MMP-2 transcription (QPCR); assay type: cell-based; conditions: HCF, 10 ng/mL TNFα 72 hours, 75 or 150 μM
[4] = biological target: MMP-8 (Homo sapiens, UniProt P22894); experiment: Direct enzyme inhibition, MMP-8; assay type: biochemical
Chain of MMP-8 (P22894 101-467, species assumed): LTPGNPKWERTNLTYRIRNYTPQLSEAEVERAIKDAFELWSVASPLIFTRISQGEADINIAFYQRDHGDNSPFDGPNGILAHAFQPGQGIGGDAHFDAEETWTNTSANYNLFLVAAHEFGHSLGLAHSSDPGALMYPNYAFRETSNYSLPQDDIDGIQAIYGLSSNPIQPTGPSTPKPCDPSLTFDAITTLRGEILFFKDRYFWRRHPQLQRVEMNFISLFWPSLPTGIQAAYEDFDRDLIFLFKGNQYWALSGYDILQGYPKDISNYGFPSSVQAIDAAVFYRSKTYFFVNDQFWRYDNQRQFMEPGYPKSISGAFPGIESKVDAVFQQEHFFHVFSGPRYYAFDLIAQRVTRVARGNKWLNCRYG

[5] = test system: human colon cancer cells; experiment: Colon cancer cell invasiveness, in vitro model; assay type: cell-based; conditions: low dose, FIG. 10
[6] = biological target: T1, MMP-2; experiment: Direct inhibition of recombinant MMP-2, fluorogenic substrate; assay type: biochemical; parameters: purchased R&D Systems, Ireland; conditions: read-out: inhibition of recombinant human MMP-2
[7] = biological target: MMP-13 (Homo sapiens, UniProt P45452); experiment: Direct enzyme inhibition, MMP-13; assay type: biochemical
[8] = test system: MMP-9; experiment: PMA-stimulated CaCo2 cells, zymography of media, MMP-9; assay type: cell-based
[9] = test system: MMP-9; experiment: Total MMP-9 levels on repeated oral administration in non-human primates; assay type: in vivo, cynomolgus monkeys; conditions: for total plasma MMP-9, median AUC: NHPs, daily orogastric gavage for 72 hours, n=6; for change in MMP-9 from baseline to 72 hours: oral gavage once daily for three days, n=6 per group
[10] = biological target: T2, MMP-9 (Homo sapiens, UniProt P14780); experiment: Model of direct enzyme inhibition, MMP-9 (IC50); assay type: biochemical
T2 sequence (P14780 94-707): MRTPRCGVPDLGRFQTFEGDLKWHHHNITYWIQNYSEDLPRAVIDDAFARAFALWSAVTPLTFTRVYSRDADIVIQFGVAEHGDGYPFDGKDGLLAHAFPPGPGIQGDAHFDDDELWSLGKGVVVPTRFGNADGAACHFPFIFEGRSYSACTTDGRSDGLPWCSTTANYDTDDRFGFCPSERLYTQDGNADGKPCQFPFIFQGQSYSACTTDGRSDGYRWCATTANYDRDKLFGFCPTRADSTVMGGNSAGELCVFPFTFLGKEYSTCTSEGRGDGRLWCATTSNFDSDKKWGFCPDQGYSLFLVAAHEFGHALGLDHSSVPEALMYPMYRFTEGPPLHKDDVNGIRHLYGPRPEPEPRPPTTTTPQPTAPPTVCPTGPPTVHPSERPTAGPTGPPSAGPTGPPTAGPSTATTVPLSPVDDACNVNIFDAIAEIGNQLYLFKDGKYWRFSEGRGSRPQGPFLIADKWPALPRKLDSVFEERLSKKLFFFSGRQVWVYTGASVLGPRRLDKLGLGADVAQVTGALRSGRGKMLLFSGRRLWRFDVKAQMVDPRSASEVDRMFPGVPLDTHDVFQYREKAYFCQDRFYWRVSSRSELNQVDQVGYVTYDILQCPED

[11] = biological target: T2, MMP-9; experiment: Direct inhibition of recombinant MMP-9, fluorogenic substrate; assay type: biochemical; parameters: purchased R&D Systems, Ireland; conditions: read-out: inhibition of recombinant human MMP-9
[12] = Blood pressure in non-human primates; conditions: cynomolgus monkeys, over dosing period
[13] = test system: MMP-2; experiment: PMA stimulated breast cancer cell model (HT1080 cells), pro-MMP-2 / MMP-2; assay type: cell-based
[14] = test system: Human Ventricular Cardiac Fibroblast (HCF); experiment: Human ventricular cardiac fibroblast proliferation (CellTitre-Glo); assay type: cell-based
[15] = biological target: T3, MMP-1 (Homo sapiens, UniProt P03956); experiment: Direct enzyme inhibition, MMP-1; assay type: biochemical
T3 sequence (P03956 100-469): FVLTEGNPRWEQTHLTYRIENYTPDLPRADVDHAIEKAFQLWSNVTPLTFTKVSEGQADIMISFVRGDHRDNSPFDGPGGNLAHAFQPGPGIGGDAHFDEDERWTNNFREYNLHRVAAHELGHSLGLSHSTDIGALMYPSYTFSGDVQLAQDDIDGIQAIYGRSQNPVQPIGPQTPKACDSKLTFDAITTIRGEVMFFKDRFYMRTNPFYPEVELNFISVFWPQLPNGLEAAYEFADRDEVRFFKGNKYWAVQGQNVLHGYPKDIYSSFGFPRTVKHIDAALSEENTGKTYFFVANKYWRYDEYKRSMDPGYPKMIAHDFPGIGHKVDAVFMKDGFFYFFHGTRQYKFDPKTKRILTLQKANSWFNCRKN

[16] = test system: MMP-2; experiment: PMA-stimulated CaCo2 cells, zymography of media, MMP-2; assay type: cell-based; conditions: 150 uM
[17] = test system: MMP-9 mRNA; experiment: TNFα treated human cardiac fibroblasts, MMP-9 transcription (QPCR); assay type: cell-based; conditions: HCF; for TNFα induced upregulation of MMP-9 mRNA: 10 ng/mL TNFα 72 hours, 75 or 150 μM
[18] = test system: MMP-9; experiment: PMA stimulated fibrosarcoma cell model (HT1080 cells), MMP-9; assay type: cell-based; conditions: 100 micromolar
[19] = Plasma doxycycline and nitrite/nitrate (NOx) in non-human primates; assay type: in vivo, cynomolgus monkeys; conditions: cynomolgus monkey, po, 4.8 mg/kg doxycycline hyclate, day 3 of dosing, base equivalents, read-out: Maximum plasma doxycycline concentration (Cmax)
[20] = cancer patients, Phase I, cited from earlier work

C[C@H]1c2cccc(O)c2C(=O)C2=C(O)[C@]3(O)C(=O)C(C(=O)NCN(CCO[N+](=O)[O-])CCO[N+](=O)[O-])=C(O)[C@@H](N(C)C)[C@@H]3[C@@H](O)[C@@H]21 [SI1004, amido-N—[N,N-diethylnitrate-aminomethyl]-α-6-deoxy-5-oxytetracycline]
IC50 [1]: 9.4 µM | MMP-3 in in vitro inflammatory cell models [2]: does not reduce MMP-3 | Interleukin-1β protein level in PBMC supernatant ([2]; 75 μM): 27.8 ± 6.6 ng/mL | Interleukin-4 protein level in PBMC supernatant ([2]; 75 μM): 10.8 ± 0.2 ng/mL | Interleukin-5 protein level in PBMC supernatant ([2]; 75 μM): 35.8 ± 8.4 ng/mL | Interleukin-8 protein level in PBMC supernatant ([2]; 75 μM): 10960 ± 484 ng/mL | Interleukin-10 protein level in PBMC supernatant ([2]; 75 μM): 125.6 ± 32.2 ng/mL | Interleukin-13 protein level in PBMC supernatant ([2]; 75 μM): 80.8 ± 24.8 ng/mL | MMP-1 protein level in PBMC supernatant ([2]; 75 μM): 208 ± 102 ng/mL | MMP-2 protein level in PBMC supernatant ([2]; 75 μM): 120.4 ± 86.4 ng/mL | MMP-3 protein level in PBMC supernatant ([2]; 75 μM): 8.7 ± 5.2 ng/mL | MMP-10 protein level in PBMC supernatant ([2]; 75 μM): 26.6 ± 18.4 ng/mL | Interleukin-5 protein level in PBMC supernatant ([2]; 150 μM): 35.6 ± 6.4 ng/mL | Interleukin-10 protein level in PBMC supernatant ([2]; 150 μM): 142.0 ± 55.2 ng/mL | Interleukin-13 protein level in PBMC supernatant ([2]; 150 μM): 89.4 ± 13.2 ng/mL | MMP-1 protein level in PBMC supernatant ([2]; 150 μM): 171 ± 66.0 ng/mL | MMP-2 protein level in PBMC supernatant ([2]; 150 μM): 95.4 ± 52 ng/mL | MMP-3 protein level in PBMC supernatant ([2]; 150 μM): 9.1 ± 6.1 ng/mL | MMP-10 protein level in PBMC supernatant ([2]; 150 μM): 29.0 ± 14.6 ng/mL | MMP-2 mRNA expression [3]: no significant effects | inhibition at 10 µM ([4]; 10 μM): ~26% | inhibition at 100 µM [4]: ~60.7% | colon cancer cell invasiveness [5]: more effective in reducing tumour cell invasiveness | inhibition at 100 µM [6]: 29.7 ± 2.1% | inhibition at 10 µM ([7]; 10 μM): ~46% | MMP-13 inhibition ([7]; at 1000 (so in the source)): around 74.5% | suppression of MMP-9 activity relative to PMA positive control [8]: approximately 60% | total plasma MMP-9, median AUC [9]: 4.3 µg·h/mL | change in MMP-9 from baseline to 72 hours ([9]; cynomolgus monkeys): significantly reduced compared to doxycycline | suppression of total serum MMP-9 protein levels ([9]; cynomolgus monkeys, oral, daily for 3 days, vs doxycycline): more effective suppression | IC50 [10]: 25 µM | inhibition at 100 µM [11]: 26.6 ± 1.7% | diastolic blood pressure [12]: 56.4±3.8 mmHg | mean systolic blood pressure [12]: 101±6.3 mmHg | conversion of pro-MMP-2 to active MMP-2 (activation of MMP-2) [13]: do not appear to activate MMP-2 | inhibition of HCF proliferation ([14]; 75-150 μM, 2% FCS following serum starvation for 72 hours): significant inhibition | inhibition of cardiac fibroblast proliferation (admixture study, FIG. 13) ([14]; 150 micromolar): significantly more effective at inhibiting cardiac fibroblast proliferation | melting point: 101 to 104 °C | inhibition at 10 µM ([15]; 10 μM): ~19% | inhibition at 100 µM [15]: ~63% | inhibition of MMP-2 activity relative to PMA positive control [16]: about 40% | MMP-9 protein levels in treated cell supernatants [17]: below the lower limit of quantification | TNFα induced upregulation of MMP-9 mRNA [17]: significantly inhibited

C[C@H]1c2cccc(O)c2C(=O)C2=C(O)[C@]3(O)C(=O)C(C(N)=O)=C(O)[C@@H](N(C)C)[C@@H]3[C@@H](O)[C@@H]21 [Doxycycline, (4S,4aR,5S,5aR,6R,12aS)-4-(dimethylamino)-3,5,10,12,12a-pentahydroxy-6-methyl-1,11-dioxo-1,4,4a,5,5a,6,11,12a-octahydrotetracene-2-carboxamide, reference compound]
IC50 [1]: ~129 µM and 129 µM | Interleukin-1β protein level in PBMC supernatant ([2]; 75 μM): 34.6 ± 5.8 ng/mL | Interleukin-4 protein level in PBMC supernatant ([2]; 75 μM): 9.4 ± 1.2 ng/mL | Interleukin-5 protein level in PBMC supernatant ([2]; 75 μM): 40.8 ± 9.0 ng/mL | Interleukin-8 protein level in PBMC supernatant ([2]; 75 μM): 8852 ± 2568 ng/mL | Interleukin-10 protein level in PBMC supernatant ([2]; 75 μM): 136.6 ± 74.2 ng/mL | Interleukin-13 protein level in PBMC supernatant ([2]; 75 μM): 79.6 ± 17.2 ng/mL | MMP-1 protein level in PBMC supernatant ([2]; 75 μM): 144.0 ± 80.0 ng/mL | MMP-2 protein level in PBMC supernatant ([2]; 75 μM): 61.4 ± 54.2 ng/mL | MMP-10 protein level in PBMC supernatant ([2]; 75 μM): 36.0 ± 14.0 ng/mL | Interleukin-1β protein level in PBMC supernatant ([2]; 150 μM): 30.6 ± 5.0 ng/mL | Interleukin-4 protein level in PBMC supernatant ([2]; 150 μM): 9.8 ± 0.8 ng/mL | Interleukin-5 protein level in PBMC supernatant ([2]; 150 μM): 31.2 ± 5.8 ng/mL | Interleukin-10 protein level in PBMC supernatant ([2]; 150 μM): 92.2 ± 33.8 ng/mL | Interleukin-13 protein level in PBMC supernatant ([2]; 150 μM): 80.2 ± 3.2 ng/mL | MMP-1 protein level in PBMC supernatant ([2]; 150 μM): 134 ± 48 ng/mL | MMP-2 protein level in PBMC supernatant ([2]; 150 μM): 96.8 ± 80.6 ng/mL | MMP-10 protein level in PBMC supernatant ([2]; 150 μM): 47.6 ± 15.8 ng/mL | IL-8 levels in TNFalpha stimulated PBMCs (admixture study, FIG. 14) ([2]; 150 micromolar): also reduce IL-8 levels compared to controls | MMP-2 mRNA expression [3]: no significant effects | inhibition at 100 µM [4]: ~42.7% | MMP-9 production [18]: reduce MMP-9 production | Cmax [19]: 5.1 µM | colon cancer cell invasiveness [5]: does not reduce colon cancer cell invasiveness | inhibition at 100 µM ([6]; 100 μM): 34 ± 3.5% | inhibition at 100 µM ([7]; 100 μM): ~54% | suppression of MMP-9 activity relative to PMA positive control ([8]; CaCo2 cells, PMA, 150 uM): did not affect MMP-9 levels | total plasma MMP-9, median AUC [9]: 8.7 µg·h/mL | change in MMP-9 from baseline to 72 hours ([9]; cynomolgus monkeys): MMP-9 levels increase | IC50 [10]: ~164 µM and 164 µM | oral dose resulting in dose-limiting toxicity (fatigue, confusion, nausea, vomiting) [20]: 400 mg administered twice a day | maximum tolerated dose ([20]; oral): 300 mg twice a day | inhibition at 100 µM ([11]; 100 μM): 33.3 ± 3.5% | diastolic blood pressure [12]: 58.6±6.0 mmHg | mean systolic blood pressure [12]: 109.7±7.1 mmHg | conversion of pro-MMP-2 to active MMP-2 (activation of MMP-2) ([13]; HT1080 cells, PMA, 100 μM): increase the conversion of available pro-MMP-2 to active MMP-2 | pro-MMP-2 production ([13]; HT1080 cells, PMA, 100 micromolar): reduce pro-MMP-2 production | inhibition at 100 µM [15]: ~12% | inhibition of MMP-2 activity relative to PMA positive control [16]: 80% | MMP-9 protein levels in treated cell supernatants [17]: below the lower limit of quantification | TNFα induced upregulation of MMP-9 mRNA [17]: In contrast to doxycycline hyclate, SI1004 significantly inhibited
